Assay results: patent US20220162221A1, “Imaging Agents” (UCB Biopharma SRL, priority 2017, published 2022)

Legend:
tachykinin NK1 receptors = target: T1, tachykinin NK1 receptors (Homo sapiens, UniProt P25103); assay: NK1 binding, CEREP panel; details: n=1 in duplicate
T1 construct: purchased CEREP, contract assay
Method: (§1) Compound selectivity for human D1R was assessed at 10 μM at CEREP against a panel of 80 targets (n=1 with data in duplicate) including receptors, transporters, enzymes and ion channels. Potentially relevant affinity was identified for only 3 targets: dopamine D5 receptor (D5R), tachykinin NK1 receptors and adenosine transporter (ADET) with >60% inhibition at 10 μM of compound (±)-(I). Affinity (pKi) of compound of formula (±)-I for human DSR, NK1 receptor and ADET were then measured.

[1] = test system: adenosine transporter (ADET); assay: Adenosine transporter binding, CEREP panel; parameters: species or system human; details: at 10 μM, n=1 in duplicate
Method: as §1

[2] = test system: panel of 80 targets including receptors, transporters, enzymes and ion channels; assay: Selectivity panel of 80 targets (CEREP); format: binding
Method: (§2) To assess compound (I) affinity and selectivity for D1, it has been tested in competitive radioligand binding assays. Competitive radioligand binding assays were then used to measure (±)-I affinity for D1 receptor and assess its selectivity regarding a large panel of 80 related and unrelated targets.
as §1

human D1R = human D1R (Homo sapiens, UniProt P21728); assay: [3H]SCH23390 radioligand competitive binding (CEREP); parameters: purchased CEREP (Celle l'Evescault, France), contract assay
Chain of human D1R (P21728 whole entry): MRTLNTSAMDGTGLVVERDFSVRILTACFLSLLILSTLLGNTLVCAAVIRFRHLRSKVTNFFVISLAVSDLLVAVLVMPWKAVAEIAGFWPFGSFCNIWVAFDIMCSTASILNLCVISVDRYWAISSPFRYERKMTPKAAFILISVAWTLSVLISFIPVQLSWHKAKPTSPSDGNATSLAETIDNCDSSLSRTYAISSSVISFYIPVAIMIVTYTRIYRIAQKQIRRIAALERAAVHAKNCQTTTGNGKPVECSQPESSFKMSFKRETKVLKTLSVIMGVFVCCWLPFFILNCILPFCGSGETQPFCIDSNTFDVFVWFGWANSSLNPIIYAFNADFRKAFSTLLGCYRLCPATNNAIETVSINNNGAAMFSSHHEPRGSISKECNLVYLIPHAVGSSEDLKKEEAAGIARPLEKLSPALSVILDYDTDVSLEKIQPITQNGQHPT
Method: as §2
Affinity (pKi) of Compound of formula (±)-(I) for recombinant human D1R was measured at CEREP (Celle l'Evescault, France) by [^3]SCH23390 radioligand competitive binding experiments.

[3] = target: T2, dopamine D5 receptor (D5R) (Homo sapiens, UniProt P21918); assay: D5R binding, CEREP panel and pKi follow-up
T2 construct: purchased CEREP, contract assay
T2 sequence (P21918 whole entry): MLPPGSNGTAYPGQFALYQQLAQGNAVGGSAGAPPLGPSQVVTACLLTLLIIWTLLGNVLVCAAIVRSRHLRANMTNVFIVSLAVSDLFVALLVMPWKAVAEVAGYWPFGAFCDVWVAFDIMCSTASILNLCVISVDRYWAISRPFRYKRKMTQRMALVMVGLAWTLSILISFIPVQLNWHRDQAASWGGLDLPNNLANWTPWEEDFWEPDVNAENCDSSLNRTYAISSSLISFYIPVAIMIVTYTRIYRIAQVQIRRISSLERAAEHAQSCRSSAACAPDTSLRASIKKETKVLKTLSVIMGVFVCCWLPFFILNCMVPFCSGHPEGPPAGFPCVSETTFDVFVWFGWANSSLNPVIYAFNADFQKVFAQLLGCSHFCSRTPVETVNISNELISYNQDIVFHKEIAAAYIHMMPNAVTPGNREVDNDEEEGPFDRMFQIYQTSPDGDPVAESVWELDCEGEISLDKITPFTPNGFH
Method: as §1

hD1R in SK-N-MC cells = hD1R in SK-N-MC cells (Homo sapiens, UniProt P21728); assay: cAMP HTRF D1 functional assay; details: cAMP HTRF
Chain of hD1R in SK-N-MC cells (P21728 whole entry): as the sequence (P21728 whole entry) above
Method: The reaction was terminated by consecutive additions of 10 μL d2 detection reagent and the cryptate reagent both diluted in lysis buffer. After a period of 60 min at room temperature, changes in HTRF emission ratio were determined and transformed in [cAMP]i using a standard curve.

[4] = competitive radioligand binding

T1 sequence (P25103 whole entry): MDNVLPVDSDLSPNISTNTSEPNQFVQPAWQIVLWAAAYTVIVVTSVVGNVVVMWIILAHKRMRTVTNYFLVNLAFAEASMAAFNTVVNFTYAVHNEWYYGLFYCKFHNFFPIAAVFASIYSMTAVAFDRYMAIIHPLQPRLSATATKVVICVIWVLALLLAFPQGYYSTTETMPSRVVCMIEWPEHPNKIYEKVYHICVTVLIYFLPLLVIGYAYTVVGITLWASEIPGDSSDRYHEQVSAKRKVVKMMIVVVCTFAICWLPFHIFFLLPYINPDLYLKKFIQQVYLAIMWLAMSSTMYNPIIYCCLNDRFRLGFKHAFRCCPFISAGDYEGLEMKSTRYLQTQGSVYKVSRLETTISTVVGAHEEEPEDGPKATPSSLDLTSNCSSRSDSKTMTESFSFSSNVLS

Structure (SMILES): Cc1c(-c2ccc(Oc3nccc4occc34)cc2CF)n(C)c(=O)[nH]c1=O (racemic) [Compound (±)-(I), 6-[2-(fluoromethyl)-4-(furo[3,2-c]pyridin-4-yloxy)phenyl]-1,5-dimethylpyrimidine-2,4(1H,3H)-dione]
- inhibition at 10 µM (tachykinin NK1 receptors): > 60%
- inhibition, adenosine transporter (ADET) [1]: > 60%
- selectivity with respect to the other 79 tested targets ([2]; D1-like vs other targets): more than 1000 fold
- pKi for the other 79 tested targets ([2]; all targets other than D1R, D5R excepted by text): ≤ 6.0
- binding to the other tested targets ([2]; panel of 80 targets): do not significantly bind
- Ki (human D1R; [3H]SCH23390 competition, read-out: pKi for human D1R (converted)): 0.631 nM
- affinity for D1 receptor (human D1R; [4]): subnanomolar range
- Ki [3]: 0.398 nM
- inhibition at 10 µM ([3]; at 10 μM, n=1 in duplicate): > 60%
- affinity for D5 receptor [3, 4]: subnanomolar range
- agonist-like effect on D1 receptor (hD1R in SK-N-MC cells): significant direct agonist-like effect
